{
  "source": "ChEMBL document CHEMBL5465560",
  "about": "“Selectivity Literature for EUbOPEN Chemogenomic Library” (2024)",
  "key": {"[1]": {"biological_target": "Homeodomain-interacting protein kinase 1 (Homo sapiens, UniProt Q86Z02)", "sequence (Q86Z02 whole entry, looked up)": "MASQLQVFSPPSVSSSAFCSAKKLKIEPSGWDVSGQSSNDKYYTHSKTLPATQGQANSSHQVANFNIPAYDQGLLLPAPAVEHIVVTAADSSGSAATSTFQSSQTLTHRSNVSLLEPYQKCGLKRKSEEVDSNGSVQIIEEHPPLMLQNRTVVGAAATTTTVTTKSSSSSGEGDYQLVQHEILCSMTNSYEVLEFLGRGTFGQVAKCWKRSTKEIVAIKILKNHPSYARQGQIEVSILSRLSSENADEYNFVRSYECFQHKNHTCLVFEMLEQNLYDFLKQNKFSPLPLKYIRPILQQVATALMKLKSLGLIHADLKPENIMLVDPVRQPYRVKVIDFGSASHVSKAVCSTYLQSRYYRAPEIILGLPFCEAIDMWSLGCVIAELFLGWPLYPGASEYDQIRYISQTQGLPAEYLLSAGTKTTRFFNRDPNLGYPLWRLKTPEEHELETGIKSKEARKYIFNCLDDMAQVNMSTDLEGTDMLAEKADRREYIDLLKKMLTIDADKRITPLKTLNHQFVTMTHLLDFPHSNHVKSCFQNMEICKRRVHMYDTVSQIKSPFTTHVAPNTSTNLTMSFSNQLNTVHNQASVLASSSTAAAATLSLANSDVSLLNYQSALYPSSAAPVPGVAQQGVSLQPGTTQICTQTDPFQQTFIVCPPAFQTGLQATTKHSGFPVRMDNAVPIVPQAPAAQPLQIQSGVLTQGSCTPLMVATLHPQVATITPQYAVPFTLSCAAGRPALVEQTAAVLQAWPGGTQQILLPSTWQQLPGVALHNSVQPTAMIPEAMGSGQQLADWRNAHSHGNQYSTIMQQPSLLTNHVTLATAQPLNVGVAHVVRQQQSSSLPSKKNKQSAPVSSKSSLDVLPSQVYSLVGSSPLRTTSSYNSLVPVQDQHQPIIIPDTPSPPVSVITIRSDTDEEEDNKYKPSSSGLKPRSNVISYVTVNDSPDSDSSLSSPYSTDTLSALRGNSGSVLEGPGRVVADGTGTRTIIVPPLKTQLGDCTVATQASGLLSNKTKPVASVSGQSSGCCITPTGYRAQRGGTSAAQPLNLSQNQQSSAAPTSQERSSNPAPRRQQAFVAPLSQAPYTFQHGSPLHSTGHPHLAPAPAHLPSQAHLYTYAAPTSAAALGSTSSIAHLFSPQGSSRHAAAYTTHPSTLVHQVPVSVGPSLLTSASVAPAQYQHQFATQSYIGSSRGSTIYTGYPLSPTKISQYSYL", "test": "Selectivity interaction (Ambit KINOMEscan and KiNATiv profiling in Jurkat cells) EUB0000090b HIPK1", "type": "cell-based", "settings": "at 1 µM"}, "[2]": {"biological_target": "T1, Serine/threonine-protein kinase tousled-like 1 (Homo sapiens) (UniProt Q9UKI8)", "T1 sequence (whole entry)": "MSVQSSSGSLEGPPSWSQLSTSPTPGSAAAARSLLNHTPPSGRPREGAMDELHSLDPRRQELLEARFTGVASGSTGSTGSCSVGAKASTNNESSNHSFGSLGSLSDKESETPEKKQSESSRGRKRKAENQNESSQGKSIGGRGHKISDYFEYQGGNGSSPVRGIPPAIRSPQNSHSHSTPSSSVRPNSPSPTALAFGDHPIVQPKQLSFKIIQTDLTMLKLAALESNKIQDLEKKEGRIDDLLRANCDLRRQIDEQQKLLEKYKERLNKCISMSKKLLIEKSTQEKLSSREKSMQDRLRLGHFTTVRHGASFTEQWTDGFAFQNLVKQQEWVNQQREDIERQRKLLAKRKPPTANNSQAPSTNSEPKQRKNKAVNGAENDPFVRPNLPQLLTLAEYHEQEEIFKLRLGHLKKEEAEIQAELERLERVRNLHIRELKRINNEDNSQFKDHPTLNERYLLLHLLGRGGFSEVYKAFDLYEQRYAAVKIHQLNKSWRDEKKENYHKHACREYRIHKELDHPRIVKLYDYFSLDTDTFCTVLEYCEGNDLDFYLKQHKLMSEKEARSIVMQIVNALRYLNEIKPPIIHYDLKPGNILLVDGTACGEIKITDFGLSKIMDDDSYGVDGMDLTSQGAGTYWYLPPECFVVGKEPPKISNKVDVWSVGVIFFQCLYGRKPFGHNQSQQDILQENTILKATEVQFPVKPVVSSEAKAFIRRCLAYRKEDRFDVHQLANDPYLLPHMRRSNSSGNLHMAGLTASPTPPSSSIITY", "test": "Selectivity interaction (KinomeScan (DiscoverX)) EUB0000607a TLK1", "settings": "at 10 µM"}, "[3]": {"biological_target": "Angiopoietin-1 receptor (Homo sapiens) (UniProt Q02763)", "sequence (Q02763 whole entry)": "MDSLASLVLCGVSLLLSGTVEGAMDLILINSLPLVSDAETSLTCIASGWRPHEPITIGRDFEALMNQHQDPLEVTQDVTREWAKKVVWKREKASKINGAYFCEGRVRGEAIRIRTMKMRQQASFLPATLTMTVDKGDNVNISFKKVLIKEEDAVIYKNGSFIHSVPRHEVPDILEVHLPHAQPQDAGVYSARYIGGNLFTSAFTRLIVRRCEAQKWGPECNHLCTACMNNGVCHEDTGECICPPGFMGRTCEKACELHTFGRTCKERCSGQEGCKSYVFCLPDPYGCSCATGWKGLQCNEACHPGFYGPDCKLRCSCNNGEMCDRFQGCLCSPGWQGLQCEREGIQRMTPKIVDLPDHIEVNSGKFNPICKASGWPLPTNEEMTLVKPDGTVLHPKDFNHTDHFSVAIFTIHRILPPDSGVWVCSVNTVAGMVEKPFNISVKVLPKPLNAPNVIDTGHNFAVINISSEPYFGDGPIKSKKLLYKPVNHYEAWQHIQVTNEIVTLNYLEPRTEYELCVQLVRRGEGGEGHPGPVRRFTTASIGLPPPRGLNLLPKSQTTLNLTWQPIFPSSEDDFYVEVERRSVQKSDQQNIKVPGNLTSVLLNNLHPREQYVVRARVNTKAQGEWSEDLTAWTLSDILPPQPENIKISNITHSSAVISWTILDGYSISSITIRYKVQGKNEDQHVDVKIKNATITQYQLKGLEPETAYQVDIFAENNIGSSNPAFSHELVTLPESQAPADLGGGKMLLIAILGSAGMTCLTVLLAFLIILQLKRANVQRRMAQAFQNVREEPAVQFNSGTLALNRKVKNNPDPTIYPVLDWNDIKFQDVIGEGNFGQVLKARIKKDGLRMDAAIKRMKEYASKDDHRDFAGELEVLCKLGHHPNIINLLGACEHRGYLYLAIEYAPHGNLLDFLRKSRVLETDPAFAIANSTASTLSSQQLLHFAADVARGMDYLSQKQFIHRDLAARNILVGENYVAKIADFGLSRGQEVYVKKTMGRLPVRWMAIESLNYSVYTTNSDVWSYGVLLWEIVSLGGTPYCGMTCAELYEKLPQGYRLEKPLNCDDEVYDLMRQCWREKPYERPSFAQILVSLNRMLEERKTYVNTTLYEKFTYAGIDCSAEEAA", "test": "Selectivity interaction (Upstate Kinase Profiler service (Millipore)) EUB0000056c TEK", "settings": "at 1 µM"}, "[4]": {"biological_target": "Calcium/calmodulin-dependent protein kinase type 1D (Homo sapiens) (UniProt Q8IU85)", "sequence (Q8IU85 whole entry, looked up)": "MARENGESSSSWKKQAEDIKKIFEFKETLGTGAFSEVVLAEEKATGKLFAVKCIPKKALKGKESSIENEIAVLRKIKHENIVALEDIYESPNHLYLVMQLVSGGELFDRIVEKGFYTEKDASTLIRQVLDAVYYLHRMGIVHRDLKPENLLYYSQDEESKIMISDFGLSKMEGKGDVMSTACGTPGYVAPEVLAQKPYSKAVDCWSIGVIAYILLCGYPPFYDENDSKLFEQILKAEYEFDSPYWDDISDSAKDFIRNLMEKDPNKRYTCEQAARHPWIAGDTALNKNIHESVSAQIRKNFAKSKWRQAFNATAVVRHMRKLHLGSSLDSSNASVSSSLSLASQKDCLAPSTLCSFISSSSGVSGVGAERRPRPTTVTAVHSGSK", "test": "Selectivity interaction (Kinase panel (KiNativ target engagement assay in Jurkat cells)) EUB0001635a CAMK1D", "type": "cell-based", "settings": "at 1 µM"}, "[5]": {"biological_target": "Mitogen-activated protein kinase kinase kinase 4 (Homo sapiens) (UniProt Q9Y6R4)", "settings": "at 10 µM"}, "[6]": {"biological_target": "Interleukin-1 receptor-associated kinase 1 (Homo sapiens) (UniProt P51617)", "sequence (P51617 whole entry, looked up)": "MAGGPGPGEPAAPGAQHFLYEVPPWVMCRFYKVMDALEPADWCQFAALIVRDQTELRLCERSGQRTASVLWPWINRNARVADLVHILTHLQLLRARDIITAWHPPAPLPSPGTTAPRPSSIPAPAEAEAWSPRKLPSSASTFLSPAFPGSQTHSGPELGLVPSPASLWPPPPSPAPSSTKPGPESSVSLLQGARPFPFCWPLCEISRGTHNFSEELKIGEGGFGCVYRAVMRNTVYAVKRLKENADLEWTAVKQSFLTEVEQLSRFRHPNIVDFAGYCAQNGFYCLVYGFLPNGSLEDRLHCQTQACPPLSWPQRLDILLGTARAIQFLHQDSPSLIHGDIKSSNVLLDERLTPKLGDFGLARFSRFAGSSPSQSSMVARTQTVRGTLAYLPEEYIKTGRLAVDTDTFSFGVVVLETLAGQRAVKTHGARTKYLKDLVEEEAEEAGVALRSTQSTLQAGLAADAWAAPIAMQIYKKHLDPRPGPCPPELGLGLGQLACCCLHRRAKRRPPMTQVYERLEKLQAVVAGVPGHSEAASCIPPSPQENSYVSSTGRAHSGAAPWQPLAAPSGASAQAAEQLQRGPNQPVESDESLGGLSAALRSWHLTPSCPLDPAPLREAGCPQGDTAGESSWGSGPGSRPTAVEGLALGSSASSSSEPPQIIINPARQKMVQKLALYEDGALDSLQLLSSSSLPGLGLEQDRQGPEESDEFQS", "test": "Selectivity interaction (ActivX KiNativ screen (kinase selectivity in THP-1 cell lysates)) EUB0000639a IRAK1", "type": "subcellular", "settings": "lysate"}, "[7]": {"biological_target": "Mitogen-activated protein kinase kinase kinase 1 (Homo sapiens, UniProt Q13233)", "sequence (Q13233 whole entry)": "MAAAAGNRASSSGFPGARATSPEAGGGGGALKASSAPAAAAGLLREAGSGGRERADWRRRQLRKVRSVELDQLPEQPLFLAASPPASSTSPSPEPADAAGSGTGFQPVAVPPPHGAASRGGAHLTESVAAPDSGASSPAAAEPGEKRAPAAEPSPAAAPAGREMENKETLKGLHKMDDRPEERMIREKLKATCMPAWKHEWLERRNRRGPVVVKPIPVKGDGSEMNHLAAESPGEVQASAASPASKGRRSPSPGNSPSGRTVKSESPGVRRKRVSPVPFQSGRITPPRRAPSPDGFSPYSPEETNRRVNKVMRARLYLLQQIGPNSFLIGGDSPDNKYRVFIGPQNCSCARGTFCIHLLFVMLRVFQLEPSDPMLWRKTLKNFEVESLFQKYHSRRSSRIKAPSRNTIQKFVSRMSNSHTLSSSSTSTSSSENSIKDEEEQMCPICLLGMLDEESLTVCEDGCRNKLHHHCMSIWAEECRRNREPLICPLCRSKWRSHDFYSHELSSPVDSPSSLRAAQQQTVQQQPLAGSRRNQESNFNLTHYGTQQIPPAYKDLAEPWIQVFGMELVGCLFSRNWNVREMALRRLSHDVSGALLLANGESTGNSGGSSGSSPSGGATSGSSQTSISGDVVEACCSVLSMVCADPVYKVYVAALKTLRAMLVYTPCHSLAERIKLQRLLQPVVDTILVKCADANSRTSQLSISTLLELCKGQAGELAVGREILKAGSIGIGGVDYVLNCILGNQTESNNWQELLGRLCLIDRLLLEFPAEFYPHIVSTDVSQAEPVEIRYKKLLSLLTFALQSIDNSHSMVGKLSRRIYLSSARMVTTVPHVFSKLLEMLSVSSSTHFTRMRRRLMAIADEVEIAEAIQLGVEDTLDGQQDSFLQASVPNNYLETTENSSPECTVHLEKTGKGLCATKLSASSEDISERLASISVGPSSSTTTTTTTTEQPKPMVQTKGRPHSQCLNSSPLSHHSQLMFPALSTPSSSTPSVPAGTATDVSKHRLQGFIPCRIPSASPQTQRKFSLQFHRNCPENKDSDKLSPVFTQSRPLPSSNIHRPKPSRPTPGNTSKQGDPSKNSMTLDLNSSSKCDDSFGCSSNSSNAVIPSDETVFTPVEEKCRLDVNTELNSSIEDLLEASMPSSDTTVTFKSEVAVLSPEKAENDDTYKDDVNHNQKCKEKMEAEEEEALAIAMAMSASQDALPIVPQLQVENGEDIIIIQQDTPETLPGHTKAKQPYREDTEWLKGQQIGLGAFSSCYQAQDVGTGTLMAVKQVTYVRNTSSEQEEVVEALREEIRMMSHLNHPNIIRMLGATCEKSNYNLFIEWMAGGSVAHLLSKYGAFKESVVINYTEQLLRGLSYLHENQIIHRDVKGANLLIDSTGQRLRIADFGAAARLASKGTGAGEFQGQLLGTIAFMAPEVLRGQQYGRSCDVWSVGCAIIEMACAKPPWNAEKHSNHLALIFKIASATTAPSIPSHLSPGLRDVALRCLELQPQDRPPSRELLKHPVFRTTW", "test": "Selectivity interaction (ActivX KiNativ screen (kinase selectivity in THP-1 cell lysates)) EUB0000639a MAP3K1", "type": "subcellular", "settings": "lysate"}, "[8]": {"biological_target": "Protein polybromo-1 (Homo sapiens) (UniProt Q86U86)", "test": "Selectivity interaction (Bromodomain panel (DSF asssay)) EUB0000270b PBRM1"}, "[9]": {"biological_target": "Serine/threonine-protein kinase Chk1 (Homo sapiens, UniProt O14757)"}, "[10]": {"biological_target": "Tyrosine-protein kinase Fes/Fps (Homo sapiens) (UniProt P07332)", "test": "Selectivity interaction (KinomeScan (DiscoverX)) EUB0000229b FES", "settings": "at 10 µM"}, "[11]": {"biological_target": "Tyrosine-protein kinase SYK (Homo sapiens, UniProt P43405)", "test": "Selectivity interaction (KinomeScan (DiscoverX)) EUB0000229b SYK", "settings": "at 10 µM"}, "[12]": {"biological_target": "T2, Serine/threonine-protein kinase ICK (Homo sapiens) (UniProt Q9UPZ9)", "T2 sequence (whole entry)": "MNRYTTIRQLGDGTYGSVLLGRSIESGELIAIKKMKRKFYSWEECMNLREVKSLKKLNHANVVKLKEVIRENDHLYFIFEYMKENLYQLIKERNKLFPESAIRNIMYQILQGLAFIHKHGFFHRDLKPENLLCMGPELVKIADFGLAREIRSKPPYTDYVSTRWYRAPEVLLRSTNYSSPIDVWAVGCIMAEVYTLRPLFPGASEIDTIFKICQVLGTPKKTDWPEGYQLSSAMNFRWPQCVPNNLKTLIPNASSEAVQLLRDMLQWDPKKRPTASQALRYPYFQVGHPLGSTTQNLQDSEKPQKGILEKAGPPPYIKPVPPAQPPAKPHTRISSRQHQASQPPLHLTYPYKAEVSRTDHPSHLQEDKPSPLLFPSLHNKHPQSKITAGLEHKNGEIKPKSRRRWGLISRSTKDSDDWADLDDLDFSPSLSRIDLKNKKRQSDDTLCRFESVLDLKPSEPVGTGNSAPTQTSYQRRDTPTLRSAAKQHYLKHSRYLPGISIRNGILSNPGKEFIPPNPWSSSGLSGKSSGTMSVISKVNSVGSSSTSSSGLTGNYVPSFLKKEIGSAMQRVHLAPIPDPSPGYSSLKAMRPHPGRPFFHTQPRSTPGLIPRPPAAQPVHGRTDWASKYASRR", "test": "Selectivity interaction (KinomeScan (DiscoverX)) EUB0000666a ICK", "settings": "at 10 µM"}},
  "data": [
    {"smiles": "CN(C)C/C=C/C(=O)Nc1ccc(C(=O)N2CCCC(Nc3ncc(Cl)c(-c4c[nH]c5ccccc45)n3)C2)cc1", "note": "(stereo unspecified)", "values": [
      {"measurement": "% of control", "setting": "[1]", "result": 80, "unit": "%"}
    ]},
    {"smiles": "CNC(=O)Nc1ccc(-c2nc(N3CC4CCC(C3)O4)c3cnn(C4CCC5(CC4)OCCO5)c3n2)cc1", "values": [
      {"measurement": "% of control", "setting": "[2]", "result": 86, "unit": "%"}
    ]},
    {"smiles": "Cc1ccc(-c2ccc3c(ccc4sc5c(c43)NC[C@@H](C)NC5=O)n2)cn1", "values": [
      {"measurement": "% of inhibition", "setting": "[3]", "result": -31, "unit": "%"}
    ]},
    {"smiles": "C=CC(=O)Nc1ccc(C(=O)Nc2[nH]nc3c2CN(C(=O)N[C@H](CN(C)C)c2ccccc2)C3(C)C)cc1", "values": [
      {"measurement": "% of engagement", "setting": "[4]; Selectivity number of off-targets 0.0, Selectivity number of targets 233.0, Source Knowledge https://www.sciencedirect.com/science/article/pii/S2451945619300674?via%3Dihub", "result": 18.9, "unit": "%"},
      {"measurement": "% of engagement", "setting": "[4]", "result": 8.9, "unit": "%"}
    ]},
    {"smiles": "Cc1cc([C@@H](C)Nc2ccccc2C(=O)O)c2nc(N3CCOCC3)cc(=O)n2c1", "note": "[AZD-6482]", "values": [
      {"measurement": "% of control", "setting": "[5]", "result": 100, "unit": "%"}
    ]},
    {"smiles": "CC[C@@H]1[C@H](F)C(=O)N[C@@H]1COc1nccc2cc(C(N)=O)c(OC)cc12", "note": "[ZIMLOVISERTIB]", "values": [
      {"measurement": "% of inhibition", "setting": "[6]; at 0.01 µM", "result": 2.3, "unit": "%"},
      {"measurement": "% of inhibition", "setting": "[6]; at 0.04 µM", "result": 8.5, "unit": "%"},
      {"measurement": "% of inhibition", "setting": "[6]; at 0.2 µM", "result": 2.2, "unit": "%"},
      {"measurement": "% of inhibition", "setting": "[6]; at 1 µM", "result": 19.8, "unit": "%"},
      {"measurement": "% of inhibition", "setting": "[6]; at 5 µM", "result": 60.7, "unit": "%"},
      {"measurement": "% of inhibition", "setting": "[7]; at 0.01 µM", "result": 9.7, "unit": "%"},
      {"measurement": "% of inhibition", "setting": "[7]; at 0.04 µM", "result": -2.5, "unit": "%"},
      {"measurement": "% of inhibition", "setting": "[7]; at 0.2 µM", "result": -19.5, "unit": "%"},
      {"measurement": "% of inhibition", "setting": "[7]; at 1 µM", "result": -13.4, "unit": "%"},
      {"measurement": "% of inhibition", "setting": "[7]; at 5 µM", "result": 3.7, "unit": "%"}
    ]},
    {"smiles": "Cc1cc(CN)cc(C)c1-c1ncn(C)c1-c1cncn1C", "values": [
      {"measurement": "dTM", "setting": "[8]", "result": -1.91, "unit": "K"}
    ]},
    {"smiles": "CCc1cccc(CC)c1NC(=O)c1nn(C)c2c1CCc1cnc(Nc3ccc(C(=O)NC4CCN(C)CC4)cc3OC(F)(F)F)nc1-2", "values": [
      {"measurement": "IC50", "setting": "[9]", "result": "> 10", "unit": "µM"}
    ]},
    {"smiles": "COc1cc(N(C)c2ccnc3ccc(C(F)(F)F)cc23)cc(OC)c1OC", "values": [
      {"measurement": "% binding", "setting": "[10]", "result": 100, "unit": "%"},
      {"measurement": "% binding", "setting": "[11]", "result": 94, "unit": "%"}
    ]},
    {"smiles": "O=C(NOC[C@H](O)CO)c1ccc(F)c(F)c1Nc1ccc(I)cc1F", "values": [
      {"measurement": "% of control", "setting": "[12]", "result": 84, "unit": "%"}
    ]}
  ]
}
